{"source": "patent US7208167B2", "about": "“Treatment of hepatitis C with thymosin and peptide combination therapy” (SciClone Pharmaceuticals, Inc., priority 2000, dated 2007)", "key": {"HCV genotype 1": {"test_system": "HCV genotype 1", "experiment": "12-week dose ranging study of thymalfasin plus PEG-IFN2a in chronic hepatitis C non-responders: serum HCV RNA, EVR", "assay_type": "in vivo, patients", "details": "for Median Reduction HCV RNA (log): week 12", "method": "The effects of 3 different doses of thymalfasin (TA1) in combination with PEG-IFN2a on week 12 HCV RNA levels and T cell counts was investigated.\n(§1) Patients with chronic hepatitis C who were non-responders to previous antiviral therapy were randomized to receive PEG-IFN2a 180 μg/week plus thymalfasin given twice a week by subcutaneous injection (Group 1, 0.8 mg; Group 2, 1.6 mg; Group 3, 3.2 mg). In order to assess effect of thymalfasin on PEG-IFN2a, patients were included only if they were infected with HCV genotype 1 and had serum HCV RNA levels greater than 2 million copies per ml. The effect of therapy was assessed on the reduction in serum HCV RNA after 12 weeks, early virologic response (EVR, proportion which greater than 2 log reduction or negative HCV RNA by the Roche Amplicor assay) and on changes in peripheral CD3 and CD4 lymphocyte counts from baseline (assessed by flow cytometry).\n31 patients (26 male) with median age 47 yrs (range 39–58) were enrolled. Four were non-responders to a previous course of standard IFN alone while 27 had previously non responded to standard IFN with ribavirin. All subjects completed 12 weeks of therapy. Six (19%) became negative for HCV RNA on therapy. […] The median reduction in HCV RNA increased with dose with thymosin (Table B).\nPatients were randomized into three groups to receive 180 mcg/week of pegylated interferon alpha-2a plus one of three different bi-weekly doses of TA1."}, "[1]": {"test_system": "peripheral CD3 lymphocyte counts", "experiment": "Same study: change in peripheral CD3 lymphocyte counts from baseline (flow cytometry)", "assay_type": "in vivo, patients", "method": "as §1"}, "[2]": {"test_system": "peripheral CD4 lymphocyte counts", "experiment": "Same study: change in peripheral CD4 lymphocyte counts from baseline (flow cytometry)", "assay_type": "in vivo, patients", "method": "as §1"}, "HCV genotype-1a": {"test_system": "HCV genotype-1a", "experiment": "Case report, person with hepatitis C: HCV RNA levels", "assay_type": "in vivo, patient", "method": "Then it was decided to start PEG Intron at ⅕ mc/kg/w, ribavirin at 12 mg/kg/day and thymosin-alpha-1 at 3.2 mcg BIW SQ, as a second course of treatment."}, "[3]": {"details": "in vivo", "from_the_text": "Patients will be monitored for significant side-effects or allergic manifestations possibly resulting from treatment. […] Patients will be educated on the symptoms of severe anaphylactic reactions and informed of appropriate countermeasures."}, "[4]": {"details": "Group 1: 0.8 mg biw + PEG-IFN2a 180 μg/week"}, "[5]": {"details": "Group 2: 1.6 mg biw + PEG-IFN2a 180 μg/week"}, "[6]": {"details": "Group 3: 3.2 mg biw + PEG-IFN2a 180 μg/week"}}, "note": "Marks after values point to notes of the source that are not given here. Ends that are not written are not given here.", "data": [{"substance": "thymalfasin: 28 amino acidic polypeptide with a molecular weight of 3100 that has potent immunologic activity; synthetic Tα1 by SciClone (Ac-SDAAVDTSSEITTKDLKEKKEVVEEAEN; UniProt P06454 2-29, looked up)", "values": [{"measurement": "EVR, early virologic response (greater than 2 log reduction or negative HCV RNA)", "setting": "HCV genotype 1; Group 1: 0.8 mg biw + PEG-IFN2a 180 μg/week, 12 weeks, listed as T1", "value": 20, "unit": "%"}, {"measurement": "EVR, early virologic response (greater than 2 log reduction or negative HCV RNA)", "setting": "HCV genotype 1; Group 1: 0.8 mg biw + PEG-IFN2a 180 μg/week, 12 weeks, listed as TA1", "value": 20, "unit": "%"}, {"measurement": "Median Reduction HCV RNA (log)", "setting": "HCV genotype 1; Group 1: T1 0.8 mg biw sc + PEG-IFN2a 180 μg/week, n=10", "value": 0.57, "unit": "log"}, {"measurement": "EVR, early virologic response (greater than 2 log reduction or negative HCV RNA)", "setting": "HCV genotype 1; Group 2: 1.6 mg biw + PEG-IFN2a 180 μg/week, 12 weeks, listed as T1", "value": 30, "unit": "%"}, {"measurement": "EVR, early virologic response (greater than 2 log reduction or negative HCV RNA)", "setting": "HCV genotype 1; Group 2: 1.6 mg biw + PEG-IFN2a 180 μg/week, 12 weeks, listed as TA1", "value": 30, "unit": "%"}, {"measurement": "Median Reduction HCV RNA (log)", "setting": "HCV genotype 1; Group 2: T1 1.6 mg biw sc + PEG-IFN2a 180 μg/week, n=10, p < 0.01 vs group 1", "value": "0.97* log"}, {"measurement": "EVR, early virologic response (greater than 2 log reduction or negative HCV RNA)", "setting": "HCV genotype 1; Group 3: 3.2 mg biw + PEG-IFN2a 180 μg/week, 12 weeks, listed as T1", "value": 36, "unit": "%"}, {"measurement": "EVR, early virologic response (greater than 2 log reduction or negative HCV RNA)", "setting": "HCV genotype 1; Group 3: 3.2 mg biw + PEG-IFN2a 180 μg/week, 12 weeks, listed as TA1", "value": 36, "unit": "%"}, {"measurement": "Median Reduction HCV RNA (log)", "setting": "HCV genotype 1; Group 3: T1 3.2 mg biw sc + PEG-IFN2a 180 μg/week, n=11, p < 0.005 vs group 1", "value": "1.09** log"}, {"measurement": "Patients who became negative for HCV RNA on therapy", "setting": "HCV genotype 1; all 31 patients, all three dose groups, with PEG-IFN2a, 12 weeks", "value": 19, "unit": "%"}, {"measurement": "CD3+ change from baseline", "setting": "[1]; [4]", "value": 0, "unit": "%"}, {"measurement": "CD3+ change from baseline", "setting": "[1]; [5]", "value": "+8.3%"}, {"measurement": "CD3+ change from baseline", "setting": "[1]; [6]", "value": "+7.5%"}, {"measurement": "CD4+ change from baseline", "setting": "[2]; [4]", "value": "−0.2", "unit": "%"}, {"measurement": "CD4+ change from baseline", "setting": "[2]; [5]", "value": "+14.8%"}, {"measurement": "CD4+ change from baseline", "setting": "[2]; [6]", "value": "+8.8%"}, {"measurement": "HCV RNA by TMA", "setting": "HCV genotype-1a; 1 and 3 months after stopping 12 months of PEG Intron + ribavirin + thymosin-alpha-1", "value": "negative"}, {"measurement": "HCV RNA blood levels by TMA", "setting": "HCV genotype-1a; PEG Intron ⅕ mc/kg/w + ribavirin 12 mg/kg/day + thymosin-alpha-1 3.2 mcg BIW SQ, month 1, 3, 6 and 12", "value": "less than 5 IU/mL"}, {"measurement": "local or systemic side effects", "setting": "[3]", "value": "no local or systemic side effects have been observed"}]}]}
